Assay results from ChEMBL document CHEMBL1667847, “Quinazolines with intra-molecular hydrogen bonding scaffold (iMHBS) as PI3K/mTOR dual inhibitors” (Bioorg Med Chem Lett, 2011).

Columns and labels:
[1] = target: T1, Phosphatidylinositol 4,5-bisphosphate 3-kinase catalytic subunit alpha isoform (Homo sapiens, UniProt P42336); test: Inhibition of PI3Kalpha by fluorescene polarization assay
[2] = target: T1, Phosphatidylinositol 4,5-bisphosphate 3-kinase catalytic subunit alpha isoform; test: Inhibition of PI3Kalpha-phosphorylation at S473 residue in human BT20 cells; assay type: cell-based, BT-20
[3] = target: T2, Serine/threonine-protein kinase mTOR (Homo sapiens, UniProt P42345); test: Inhibition of mTOR
[4] = target: T2, Serine/threonine-protein kinase mTOR; test: Inhibition of mTOR at 1 uM

T1 sequence (P42336 whole entry, canonical isoform): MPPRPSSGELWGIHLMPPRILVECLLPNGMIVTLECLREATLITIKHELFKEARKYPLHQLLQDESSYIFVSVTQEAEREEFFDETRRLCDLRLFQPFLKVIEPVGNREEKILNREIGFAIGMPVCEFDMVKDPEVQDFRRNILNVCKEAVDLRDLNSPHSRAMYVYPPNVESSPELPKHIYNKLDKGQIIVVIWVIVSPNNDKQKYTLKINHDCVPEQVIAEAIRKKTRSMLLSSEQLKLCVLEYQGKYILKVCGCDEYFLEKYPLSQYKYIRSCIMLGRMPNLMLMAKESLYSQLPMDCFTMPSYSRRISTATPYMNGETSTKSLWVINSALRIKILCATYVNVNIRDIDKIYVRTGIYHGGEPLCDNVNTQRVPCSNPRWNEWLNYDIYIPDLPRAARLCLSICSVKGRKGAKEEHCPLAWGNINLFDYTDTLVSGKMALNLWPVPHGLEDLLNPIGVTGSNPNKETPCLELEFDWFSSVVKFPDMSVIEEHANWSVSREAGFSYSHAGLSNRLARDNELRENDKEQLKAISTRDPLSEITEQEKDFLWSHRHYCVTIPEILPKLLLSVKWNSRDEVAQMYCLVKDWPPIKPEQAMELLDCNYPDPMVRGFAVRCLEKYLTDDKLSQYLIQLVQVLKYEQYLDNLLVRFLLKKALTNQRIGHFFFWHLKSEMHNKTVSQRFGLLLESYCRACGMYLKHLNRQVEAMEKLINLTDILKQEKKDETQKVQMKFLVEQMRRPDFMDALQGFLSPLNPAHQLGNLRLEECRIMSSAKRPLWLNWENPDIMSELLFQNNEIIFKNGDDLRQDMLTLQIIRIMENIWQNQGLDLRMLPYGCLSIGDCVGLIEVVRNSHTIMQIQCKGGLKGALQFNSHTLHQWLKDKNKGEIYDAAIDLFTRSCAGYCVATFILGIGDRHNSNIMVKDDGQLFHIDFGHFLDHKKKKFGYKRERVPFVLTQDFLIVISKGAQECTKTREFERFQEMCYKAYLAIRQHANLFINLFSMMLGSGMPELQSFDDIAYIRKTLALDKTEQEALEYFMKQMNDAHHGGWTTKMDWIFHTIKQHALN

Structure (SMILES): Cc1cc(C(=O)Nc2ccc(C)nc2)c2nc(C)nc(N)c2c1
- Ki [1]: 0.5 nM
- IC50 [2]: 88 nM
- Ki [3]: 66 nM

Structure (SMILES): COc1ccc(NC(=O)c2c(C)ccc3c(N)nc(C)nc23)cn1
- inhibition [4]: 15%
- Ki [1]: > 100 nM
- Ki [3]: 1000 nM

Structure (SMILES): Cc1cc(C(=O)Nc2cnc3[nH]ccc3c2)c2nc(C)nc(N)c2c1
- Ki [1]: 0.3 nM
- IC50 [2]: 43 nM
- Ki [3]: 17 nM

Structure (SMILES): Cc1cc(C(=O)Nc2cn[nH]c2)c2nc(C)nc(N)c2c1
- Ki [1]: 5 nM
- IC50 [2]: 24 nM
- Ki [3]: 84 nM

Structure (SMILES): Cc1nc(N)c2cc(CN(C)C)cc(C(=O)Nc3ccn[nH]3)c2n1
- Ki [1]: 188 nM
- Ki [3]: 1330 nM

Structure (SMILES): Cc1ccc(NC(=O)c2c(C)ccc3c(N)nc(C)nc23)cn1
- Ki [1]: 4550 nM
- Ki [3]: 3250 nM

Structure (SMILES): Cc1cc(C(=O)Nc2ccn[nH]2)c2nc(C)nc(N)c2c1
- Ki [1]: 7 nM
- IC50 [2]: 35 nM
- Ki [3]: 3 nM

Structure (SMILES): Cc1cc(C(=O)Nc2ccc(N(C)C)nc2)c2nc(C)nc(N)c2c1
- Ki [1]: 12 nM
- Ki [3]: 162 nM

Structure (SMILES): COc1ccc(NC(=O)c2cc(C)cc3c(N)nc(C)nc23)cn1
- Ki [1]: 0.5 nM
- Ki [3]: 265 nM

Structure (SMILES): Cc1nc(N)c2ccc(C)c(C(=O)Nc3cnc4[nH]ccc4c3)c2n1
- Ki [1]: 631 nM
- Ki [3]: 216 nM

Structure (SMILES): Cc1nc(N)c2ccc(C)c(C(=O)Nc3cn[nH]c3)c2n1
- Ki [1]: > 100 nM

Structure (SMILES): Cc1nc(N)c2cc(CN3CCOCC3)cc(C(=O)Nc3ccn[nH]3)c2n1
- Ki [1]: 15 nM
- Ki [3]: 13 nM

Structure (SMILES): Cc1nc(N)c2cccc(C(=O)Nc3cnc4[nH]ccc4c3)c2n1
- Ki [1]: 1 nM
- Ki [3]: 5 nM

Structure (SMILES): Cc1nc(N)c2cccc(C(=O)Nc3cn[nH]c3)c2n1
- Ki [1]: 6 nM
- Ki [3]: 21 nM

Structure (SMILES): Cc1nc(N)c2ccc(C)c(C(=O)Nc3ccn[nH]3)c2n1
- Ki [1]: 4550 nM
- Ki [3]: 984 nM

Structure (SMILES): Cc1ccc(NC(=O)c2cccc3c(N)nc(C)nc23)cn1
- Ki [1]: 0.5 nM
- IC50 [2]: 112 nM
- Ki [3]: 31 nM

Structure (SMILES): Cc1nc(N)c2cccc(C(=O)Nc3ccc(N(C)C)nc3)c2n1
- inhibition [4]: 57%
- Ki [1]: 54 nM
- Ki [3]: 1000 nM

Structure (SMILES): Cc1nc(N)c2ccc(C)c(C(=O)Nc3ccc(N(C)C)nc3)c2n1
- Ki [1]: > 100 nM
